Test results as given in the OligoGym collection.
“And” between values parts separate entries of the source, which are not always exact repeats. Equal values may be shown once. After the bases stand the sugars from the 5' end (letter, count) and the backbone: PS all phosphorothioate, else s phosphorothioate and o phosphodiester by linkage. Methylation of C is not given here. e = 2'-O-(2-methoxyethyl) (MOE); k = constrained ethyl (cEt); d = 2'-deoxy (DNA)

Biological target: IRF4
Settings: ASO

| Sequence | target mRNA inhibition (SK-MEL-28, 4 µM) [%] | target mRNA inhibition (MM.1R, 1 µM) [%] | other results |
| --- | --- | --- | --- |
| CTTCTTTATAGTAGGT (sugars k3 d10 k3, PS) | 20 | – | – |
| CTTGGCAGGGAGCGGC (sugars k3 d10 k3, PS) | – | 25 | – |
| CTTTATCAAGACAAGG (sugars k3 d10 k3, PS) | 56 | – | – |
| CTTTGGGCACCAAAAG (sugars k3 d10 k3, PS) | – | -33 | – |
| GAAACGAGCCAGTGCA (sugars k3 d10 k3, PS) | 52 | – | – |
| GAAACGGCCTGGAGGT (sugars k3 d10 k3, PS) | – | 17 | – |
| GAAAGAGCTGGTAGGT (sugars k3 d10 k3, PS) | 0 | – | – |
| GAAATAGCATCAGAGC (sugars k3 d10 k3, PS) | 45 | – | – |
| GAAATCACGAGGTTGC (sugars k3 d10 k3, PS) | 62 | 32 | target mRNA inhibition (MM.1R, 0.0625 µM): -6%; target mRNA inhibition (MM.1R, 0.074 µM): -3%; target mRNA inhibition (MM.1R, 0.222 µM): 16%; target mRNA inhibition (MM.1R, 0.25 µM): 9%; target mRNA inhibition (MM.1R, 0.666 µM): 22%; target mRNA inhibition (MM.1R, 2 µM): 52%; target mRNA inhibition (MM.1R, 4 µM): 64% |
| GAAATGTGTTGGAAGA (sugars k3 d10 k3, PS) | 68 | – | – |
| GAACAAAAGGTTCCCG (sugars k3 d10 k3, PS) | 18 | – | – |
| GAACAAGTGTATCTTT (sugars k3 d10 k3, PS) | – | 5 | – |
| GAACCACAAGCAGTGA (sugars k3 d10 k3, PS) | – | -32 | – |
| GAACCTGCTGGGCTGG (sugars k3 d10 k3, PS) | 36 | – | – |
| GAACTAATGTCCCCAG (sugars k3 d10 k3, PS) | 61 | – | – |
| GAAGAGTTGGCGGTGG (sugars k3 d10 k3, PS) | 15 | – | – |
| GAAGCATAGAACAGAT (sugars k3 d10 k3, PS) | 51 | – | – |
| GAAGCATTTTATCATC (sugars e1 k2 d9 k2 e2, PS) | – | 1 | – |
| GAAGCATTTTATCATC (sugars k2 d9 e3 k2, PS) | – | 9 | – |
| GAAGGCCTGAGTTACC (sugars k3 d10 k3, PS) | – | 29 | – |
| GAAGGGAACAGATAGT (sugars k3 d10 k3, PS) | 17 | – | – |
| GAAGTTTACACTGGAT (sugars kkdddddddddekeke, PS) | – | 58 | target mRNA inhibition (MM.1R, 0.074 µM): 14%; target mRNA inhibition (MM.1R, 0.222 µM): 26%; target mRNA inhibition (MM.1R, 0.666 µM): 50%; target mRNA inhibition (MM.1R, 2 µM): 59% |
| GAAGTTTACACTGGAT (sugars kkkdddddddddkeke, PS) | – | 49 | – |
| GAAGTTTACTAACTGG (sugars k3 d10 k3, PS) | 57 | – | – |
| GAATCTTGGCAGGGAG (sugars k3 d10 k3, PS) | – | 0 | – |

| Sequence | target mRNA inhibition (SK-MEL-28, 4 µM) [%] | target mRNA inhibition (MM.1R, 1 µM) [%] | other results |
| --- | --- | --- | --- |
| GAATTCCAAACCTTAA (sugars k3 d10 k3, PS) | – | 4 | – |
| GAATTTACAGCATCTA (sugars k3 d10 k3, PS) | 76 | – | – |
| GACAAGAACTGCTGTG (sugars k3 d10 k3, PS) | 15 | – | – |
| GACAATGTTGTATGAA (sugars k3 d10 k3, PS) | 72 | – | – |
| GACACTTTTAGAGAGG (sugars k2 d9 e3 k2, PS) | – | 25 | – |
| GACACTTTTAGAGAGG (sugars kddddddddddkekek, PS) | – | 23 | – |
| GACACTTTTAGAGAGG (sugars kdddddddddkekeke, PS) | – | 9 | – |
| GACACTTTTAGAGAGG (sugars kkddddddddddkeke, PS) | – | 9 | – |
| GACACTTTTAGAGAGG (sugars kkdddddddddkdkdk, PS) | – | 14 | – |
| GACAGTGACTTGCATC (sugars kkdddddddddkekek, PS) | – | 5 | – |
| GACATTGGTACGGGAT (sugars k3 d10 k3, PS) | 36 | – | – |
| GACCAACTGGAAAACC (sugars k3 d10 k3, PS) | 56 | – | – |
| GACCAATTTATGCCAT (sugars k3 d10 k3, PS) | 38 | – | – |
| GACCCACACCAGGAAA (sugars k3 d10 k3, PS) | 2 | – | – |
| GACCTAACTAAATGTC (sugars k3 d10 k3, PS) | -18 | – | – |
| GACGGAGGCGGCAGAC (sugars k3 d10 k3, PS) | -43 | – | – |
| GACTAACAGGGAGACT (sugars k3 d10 k3, PS) | -9 | – | – |
| GACTCCATGAGGTTTT (sugars k3 d10 k3, PS) | 70 | – | target mRNA inhibition (SK-MEL-28, 0.185 µM): 14% and 10% and 1%; target mRNA inhibition (SK-MEL-28, 5 µM): 58% and 55% and 77%; target mRNA inhibition (SK-MEL-28, 15 µM): 76% and 78% and 87% |
| GACTCGGAGCTGAGGG (sugars k3 d10 k3, PS) | 23 | – | – |
| GACTTAAGCTAAACTC (sugars k3 d10 k3, PS) | 58 | – | – |
| GACTTATTTGTGGCTC (sugars k3 d10 k3, PS) | – | 20 | – |
| GAGAAAACCCCCCTCT (sugars k3 d10 k3, PS) | 17 | – | – |
| GAGAAACGAGCCAGTG (sugars k3 d10 k3, PS) | 39 | – | – |
| GAGAAGCATATTCCAA (sugars k3 d10 k3, PS) | 57 | – | – |
| GAGACCTACAAAATGC (sugars k3 d10 k3, PS) | 11 | – | – |

| Sequence | target mRNA inhibition (SK-MEL-28, 4 µM) [%] | target mRNA inhibition (MM.1R, 1 µM) [%] | other results |
| --- | --- | --- | --- |
| GAGAGACGAAAACAGC (sugars k3 d10 k3, PS) | – | 5 | – |
| GAGCAAACCCTGCACT (sugars k3 d10 k3, PS) | -16 | – | – |
| GAGCAAAGCAAGTGTC (sugars k3 d10 k3, PS) | 42 | – | – |
| GAGCAATGAACGGAAG (sugars k3 d10 k3, PS) | 72 | – | – |
| GAGCACTGCATGAAAG (sugars k3 d10 k3, PS) | 51 | – | – |
| GAGCAGTAAACGCAAG (sugars k3 d10 k3, PS) | 54 | – | – |
| GAGCATCAACAAAGCC (sugars k3 d10 k3, PS) | 58 | – | – |
| GAGCATCCGCTTGGAG (sugars k3 d10 k3, PS) | 31 | – | – |
| GAGCCAGAGCAGTAAA (sugars k3 d10 k3, PS) | – | -2 | – |
| GAGCTGTGATGAGCTT (sugars k4 d8 k4, PS) | 5 | – | – |
| GAGGAAGCCGTTCCTT (sugars k3 d10 k3, PS) | 51 | – | – |
| GAGGAAGTCCCCTTCC (sugars k3 d10 k3, PS) | – | 4 | – |
| GAGGAATGGCGGATAG (sugars k3 d10 k3, PS) | 31 | – | – |
| GAGGAGGAGGACTTAT (sugars k3 d10 k3, PS) | 51 | – | – |
| GAGGGTCAAAAAGATG (sugars k3 d10 k3, PS) | 33 | – | – |
| GAGTCACCTGGAATCT (sugars k3 d10 k3, PS) | 43 | – | – |
| GAGTCCCCGGCTCCTC (sugars k3 d10 k3, PS) | 25 | – | – |
| GAGTCTTTGAGGCTGC (sugars k3 d10 k3, PS) | 34 | – | – |
| GAGTGAGATGCGGAGG (sugars k3 d10 k3, PS) | – | – | target mRNA inhibition (MM.1R, 0.0625 µM): 6%; target mRNA inhibition (MM.1R, 0.25 µM): 0%; target mRNA inhibition (MM.1R, 4 µM): 67% |
| GATAAAGGCTGAACTG (sugars k3 d10 k3, PS) | 67 | – | – |
| GATAATATACCCCAAA (sugars k3 d10 k3, PS) | 33 | – | – |
| GATCATCAACTTCTTA (sugars k3 d10 k3, PS) | 47 | – | – |
| GATCCTGAGAGTAAAC (sugars k3 d10 k3, PS) | – | 6 | – |
| GATGTATACATCACTG (sugars k3 d10 k3, PS) | 70 | – | – |
| GATGTGATAGCTGAGC (sugars kkdddddddddkdkdk, PS) | – | 34 | – |

| Sequence | target mRNA inhibition (SK-MEL-28, 4 µM) [%] | target mRNA inhibition (MM.1R, 1 µM) [%] | other results |
| --- | --- | --- | --- |
| GATTATATACTGGTTG (sugars kkddddddddddkeke, PS) | – | 45 | – |
| GATTCATTTCCTTCAC (sugars k3 d10 k3, PS) | 49 | – | – |
| GCAAAACCCCTCAAGC (sugars k3 d10 k3, PS) | 20 | – | – |
| GCAATTGAAATGGAGC (sugars k3 d10 k3, PS) | 24 | – | – |
| GCACAAGCATAAAAGG (sugars k3 d10 k3, PS) | 16 | – | – |
| GCACAATTCTCTGAGA (sugars k3 d10 k3, PS) | 34 | – | – |
| GCACAGAACACCTGAT (sugars k3 d10 k3, PS) | 56 | – | – |
| GCACAGACATACCTAC (sugars k3 d10 k3, PS) | 46 | – | – |
| GCACTGCATGAAAGTG (sugars k3 d10 k3, PS) | 40 | – | – |
| GCACTGGCATCGAGAC (sugars k3 d10 k3, PS) | 57 | – | – |
| GCAGAGCAATTTACAT (sugars k3 d10 k3, PS) | 66 | – | – |
| GCAGAGGGACCCACAC (sugars k3 d10 k3, PS) | 21 | – | – |
| GCAGGTTTCATTTCAT (sugars k3 d10 k3, PS) | 44 | – | – |
| GCAGTGATGTCAGGTT (sugars k3 d10 k3, PS) | – | 39 | – |
| GCAGTGATGTCAGGTT (sugars kkdddddddddkdkdk, PS) | – | 53 | target mRNA inhibition (MM.1R, 0.074 µM): 15%; target mRNA inhibition (MM.1R, 0.222 µM): 32%; target mRNA inhibition (MM.1R, 0.666 µM): 58%; target mRNA inhibition (MM.1R, 2 µM): 79% |
| GCATAAAAGGTTCCTG (sugars k3 d10 k3, PS) | 26 | – | – |
| GCATAGCATTATCTAC (sugars k3 d10 k3, PS) | 51 | – | – |
| GCATCTAAGGCAAGCT (sugars k3 d10 k3, PS) | 34 | – | – |
| GCATTTTATCATCCGA (sugars e1 k2 d9 k2 e2, PS) | – | 61 | target mRNA inhibition (MM.1R, 0.074 µM): 18%; target mRNA inhibition (MM.1R, 0.222 µM): 34%; target mRNA inhibition (MM.1R, 0.666 µM): 57%; target mRNA inhibition (MM.1R, 2 µM): 83% |
| GCATTTTATCATCCGA (sugars k2 d9 e3 k2, PS) | – | 38 | – |
| GCATTTTATCATCCGA (sugars kkddddddddddkeke, PS) | – | 39 | – |
| GCATTTTATCATCCGA (sugars kkdddddddddekeke, PS) | – | 44 | – |
| GCATTTTATCATCCGA (sugars kkdddddddddkdkdk, PS) | – | 16 | – |
